Test results as given in PubChem BioAssay AID248 (DTP/NCI, 2004).
Toxic doses and inconclusive results are not listed. Cut-off read from the data, not from the text of the source: active = T/C of 150% or more; inactive = T/C below 125%.

Test system: L1210 leukemia ip in BDF1 mice, survival T/C
Assay: NCI In Vivo Anticancer Drug Screen. Data for tumor model L1210 Leukemia (intraperitoneal) in B6D2F1 (BDF1) mice
Conditions: endpoint: mean survival time, higher = longer survival
Summary of the method: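 Value reflects the ratio of survival in compound-treated mice to survival in vehicle-treated controls, with both groups carrying the same transplanted tumor.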

[1] = dose: 100.0 mg/kg/injection, schedule: Q01DX009 (ip), vehicle: saline with Tween-80
[2] = dose: 200.0 mg/kg/injection, schedule: Q01DX009 (ip), vehicle: saline with Tween-80
[3] = dose: 100.0 mg/kg/injection, schedule: Q04DX003 (ip), vehicle: saline
[4] = dose: 200.0 mg/kg/injection, schedule: Q04DX003 (ip), vehicle: saline
[5] = dose: 400.0 mg/kg/injection, schedule: Q04DX003 (ip), vehicle: saline

Measured: T/C

NC(CO)CO
inactive: dose: 100.0 mg/kg/injection, schedule: Q04DX002 (ip), vehicle: saline 105 % of control | dose: 200.0 mg/kg/injection, schedule: Q04DX002 (ip), vehicle: saline 108 % of control | dose: 400.0 mg/kg/injection, schedule: Q04DX002 (ip), vehicle: saline 105 % of control

CCCCCC/C(C)=N/O
inactive: [1] 94 % of control | dose: 100.0 mg/kg/injection, schedule: Q04DX003 (ip), vehicle: saline with Tween-80 106 % of control | [2] 103 % of control | dose: 200.0 mg/kg/injection, schedule: Q04DX003 (ip), vehicle: saline with Tween-80 95 % of control | dose: 400.0 mg/kg/injection, schedule: Q04DX003 (ip), vehicle: saline with Tween-80 98 % of control

O=C1NC(=O)C(CCCCCl)N1 (configuration not stated)
inactive: dose: 100.0 mg/kg/injection, schedule: Q01DX001 (ip), vehicle: saline 91 % of control | dose: 200.0 mg/kg/injection, schedule: Q01DX001 (ip), vehicle: saline 87 % of control | dose: 400.0 mg/kg/injection, schedule: Q01DX001 (ip), vehicle: saline 94 % of control

O=c1oc(-c2cccc([N+](=O)[O-])c2)nc2ccccc12
inactive: dose: 50.0 mg/kg/injection, schedule: Q01DX009 (ip), vehicle: saline with Tween-80 97 % of control | [1] 94 % of control | [2] 93 % of control

COc1ccc(C(C#N)CC(=O)c2ccc(OCc3ccccc3)c(OC)c2)cc1OC (configuration not stated)
inactive: dose: 75.0 mg/kg/injection, schedule: Q01DX009 (ip), vehicle: other 88 % of control | [3] 90 % of control | dose: 150.0 mg/kg/injection, schedule: Q01DX009 (ip), vehicle: other 90 % of control | [4] 96 % of control | dose: 300.0 mg/kg/injection, schedule: Q01DX009 (ip), vehicle: other 95 % of control | [5] 94 % of control | dose: 600.0 mg/kg/injection, schedule: Q01DX009 (ip), vehicle: other 102 % of control

NC(CCCC(N)C(=O)O)C(=O)O (configuration not stated)
inactive: dose: 12.5 mg/kg/injection, schedule: Q04DX002 (ip), vehicle: saline 103 % of control | dose: 25.0 mg/kg/injection, schedule: Q04DX002 (ip), vehicle: saline 100 % of control | dose: 50.0 mg/kg/injection, schedule: Q04DX002 (ip), vehicle: Klucel (hydroxypropylcellulose) (HPC) 96 % of control | dose: 50.0 mg/kg/injection, schedule: Q04DX002 (ip), vehicle: saline 93 % of control | dose: 100.0 mg/kg/injection, schedule: Q04DX002 (ip), vehicle: Klucel (hydroxypropylcellulose) (HPC) 101 % of control | dose: 200.0 mg/kg/injection, schedule: Q04DX002 (ip), vehicle: Klucel (hydroxypropylcellulose) (HPC) 93 % of control

COc1cc2cc(-c3cc(OC)c(OC)c(OC)c3)c3c(c2cc1OC)CNC3=O
inactive: dose: 100.0 mg/kg/injection, schedule: Q01DX009 (ip), vehicle: saline 90 % of control | [3] 93 % of control | dose: 200.0 mg/kg/injection, schedule: Q01DX009 (ip), vehicle: saline 90 % of control | [4] 101 % of control | [5] 101 % of control

CC1(C)OCC2OC3(C(=O)O)OC(C)(C)OC3C2O1 (configuration not stated)
inactive: dose: 25.0 mg/kg/injection, schedule: Q01DX009 (ip), vehicle: water 105 % of control | dose: 50.0 mg/kg/injection, schedule: Q01DX009 (ip), vehicle: water 101 % of control | dose: 100.0 mg/kg/injection, schedule: Q01DX009 (ip), vehicle: water 96 % of control | dose: 200.0 mg/kg/injection, schedule: Q01DX009 (ip), vehicle: water 101 % of control | dose: 400.0 mg/kg/injection, schedule: Q01DX009 (ip), vehicle: water 95 % of control
